Assay results from patent US12083098B2, “Treatment of idiopathic pulmonary fibrosis with glycogen synthase kinase 3 form β inhibitors” (Actuate Therapeutics Inc., priority 2018, dated 2024).
Entries after “also recorded” stand apart in the source; their conditions may differ.

What was measured:
[1] = tested on: TGF-β adenovirus induced pulmonary fibrosis; assay: TGF-β adenovirus-induced pulmonary fibrosis model in mice; assay type: in vivo
Method: In a second model, pulmonary fibrosis was initiated by intratracheal instillation of constitutively active TGF-β adenoviral vectors (Ad-TGF-β) bearing C223S/C225S mutations, as reported by Mackinnon A C et al., Am J Respir Crit Care Med 2012, 185:537-46) with some modifications. Briefly, 3×10^8 pfu of Ad-TGF-β or eGFP adenovirus control vector (Ad-eGFP) were administered intratracheally in a volume of 40 μl. Mice were then monitored daily until the completion of the 14 d time-course. For GSK-3β inhibition studies, mice received daily 9-ING-41 treatment 7 d after administration of the adenoviral vectors. At the conclusion of the time-course pulmonary function testing and CT scans were performed as described (Tucker T et al., 2019, supra; Kamata H et al., 2017, supra; Boren J et al., 2017, supra; Tucker T A et al., 2016, supra.
(§1) All statistical analyses of animal studies was performed using the Mann Whitney U test. (Student's t-test was used for in vitro studies). A p-value of less than 0.05 was considered significant.
Pulmonary fibrosis was initiated by intratracheal instillation of constitutively active TGF-β adenoviral vectors (Ad-TGF-0) bearing C223S/C225S mutations, as previously reported (Mackinnon A C et al., Am J Respir Crit Care Med 2012, 185:537-46) with some modifications. Briefly, 3×10^8 plaque forming units (pfu) of Ad-TGF-β or eGFP adenovirus control vector (Ad-eGFP) were administered intratracheally in a volume of 40 μl. Mice were then monitored daily until the completion of the 14 d time-course. For GSK-3β inhibition studies, mice received daily 9-ING-41 treatment 7 d after administration of the adenoviral vectors. At the conclusion of the time-course pulmonary function testing and CT scans were performed as described (Tucker T et al., 2019, supra; Kamata H et al., 2017, supra; Boren J et al., 2017, supra; Tucker T A et al., 2016, supra.

[2] = tested on: bleomycin-induced pulmonary fibrosis; assay: Bleomycin-induced pulmonary fibrosis model in mice; assay type: in vivo, C57BL/6 mice
Method: All animal studies were approved by the Institutional Animal Care and Use Committee at the University of Texas Health Science Center at Tyler. C57BL/6 mice (10-12 weeks of age, ≈20 g (from Jackson Laboratory, Bar Harbor ME) were first anesthetized with xylazine/ketamine by intraperitoneal (TP) injection. Lung injury was then initiated in accordance with (Sisson T H et al., Am J Pathol 2015, 185:[…]) with some modifications. Bleomycin sulfate (Teva, 0.8 units/kg) was administered intratracheally via an intratracheal cannula. Animals were monitored daily for sign of respiratory distress, significant weight loss or moribund condition. The control group received normal saline under the same conditions.
Treatments were begun 14 d after the initiation of injury. For GSK-3β inhibitor studies, treatment with 9-ING-41 (gift from Actuate Therapeutics, Ft. Worth, TX), at 30 mg/kg, or vehicle control dimethylsulfoxide/DMSO in a volume of 40 μl, was administered daily by IP injection for up to 14 d.
At the completion of the 28 d time course mice were evaluated by flexivent (Tucker T et al., Am J Respir Cell Mol Biol 2019 (doi: 10.1165/rcmb.2018-0121OC. Epub ahead of print); Kamata H et al., Sci Rep 2017, 7:4556; Boren J et al., supra; Tucker T A et al., 2014, supra; Tucker T A et al., Clin Transl Med 5: 17, 2016) for changes in pulmonary function including elastance and compliance. Briefly, mice were anesthetized with a ketamine/xylazine mixture. Anesthetized mice were intubated by inserting a sterile, 20-gauge intravenous cannula through the vocal cords into the trachea and were maintained under anesthesia using isoflurane during pulmonary function testing. Measurements were performed using the flexiVent system (SCIREQ, Tempe AZ). The “snapshot perturbation method” was used to determine lung compliance, according to manufacturer's specifications. At 28 d, mice were euthanized and lungs harvested en bloc. Lung morphometry was determined by trichrome staining of 5 μm lung tissue sections as described in the above cited references. All tissue sections were first de-paraffinized and subjected to antigen retrieval using a citrate buffer at 95° C. for 20 minutes. Tissue analyses, collagen deposition and localization were initially assessed by Trichrome staining. Immunofluorescence was used to visualize α-SMA (MAB1420, R&D), Confocal microscopy was then used to visualize immunofluorescence and co-localization of the markers. Images were acquired from a field of view at 0.4-μm z-axis increments with the LSM 510 Meta confocal system (Carl Zeiss) at 40× as described.
as §1

Cn1cc(C2=C(c3coc4ccc(F)cc34)C(=O)NC2=O)c2cc3c(cc21)OCO3 [9-ING-41]
lung compliance ([1]; Ad-TGF-β 3×10^8 pfu intratracheal, 9-ING-41 30 mg/kg daily ip from day 7 for 7 d, read at 14 d, n=6, p<0.05 vs controls, 30 mg/kg): significantly improved; also recorded: improved lung function | lung volume ([1]; TGF-β adenovirus model, at completion of 14 d time course): increased lung volume | areas of injury and collagen deposition in lung sections (Trichrome) ([1]; TGF-β adenovirus model, compared to DMSO-treated controls, n=6): reduced areas of injury | lung volume (gated CT scan) ([2]; bleomycin 0.8 U/kg intratracheal, 30 mg/kg daily ip from day 14, read at 28 d, vs DMSO vehicle, p=0.026, 30 mg/kg): significantly improved; also recorded: increased lung volume | collagen 1 deposition in lung sections (immunostaining, confocal microscopy 40×) ([2]; bleomycin injured lungs, compared to vehicle (DMSO) treated controls): reduced | areas of injury / fibrotic foci in lung sections (Trichrome) ([2]; bleomycin model, 30 mg/kg daily ip, 5 μm sections, n=6, compared to vehicle treated animals): fewer in number and smaller | collagen deposition within the fibrotic lesions ([2]; bleomycin model, 30 mg/kg daily ip, compared to DMSO-treated controls): generally reduced | lung compliance (Scireq flexivent) ([2]; bleomycin sulfate 0.8 U/kg intratracheal, 9-ING-41 30 mg/kg daily ip from day 14 for up to 14 d, read at 28 d, vs DMSO vehicle, p=0.04, 30 mg/kg): significantly improved; also recorded: improved lung function | α-SMA expression in lung sections (immunostaining, confocal microscopy 40×) ([2]; marker of myofibroblast differentiation, n=3 mice/treatment, compared to vehicle (DMSO)): reduced
